Measurements published in the NIST ThermoML archive (doi:10.1021/je500696p).
Numbers after ± are expanded uncertainties.

Assays:
[1] = excess molar enthalpy (molar enthalpy of mixing); xn = mol fraction of the nth substance listed; conditions: 100 kPa, Liquid, Calvet calorimetry
[2] = xn = mol fraction of the nth substance listed; conditions: 100 kPa, Liquid, Vibrating tube method

CCCC[N+](C)(C)C.O=S(=O)([N-]S(=O)(=O)C(F)(F)F)C(F)(F)F [butyltrimethylammonium bis(trifluoromethylsulfonyl)imide] + CCO
Conditions | excess molar enthalpy [kcal/mol] | mass density [kg/m3]
[1], 308.15 K, x2 = 0.1229 | 0.203 ± 0.00837 | –
[1], 308.15 K, x2 = 0.2546 | 0.389 ± 0.0158 | –
[1], 308.15 K, x2 = 0.2623 | 0.396 ± 0.016 | –
[1], 308.15 K, x2 = 0.2752 | 0.411 ± 0.0167 | –
[1], 308.15 K, x2 = 0.3943 | 0.51 ± 0.0208 | –
[1], 308.15 K, x2 = 0.5084 | 0.559 ± 0.0227 | –
[1], 308.15 K, x2 = 0.5133 | 0.551 ± 0.0225 | –
[1], 308.15 K, x2 = 0.5408 | 0.557 ± 0.0227 | –
[1], 308.15 K, x2 = 0.6267 | 0.544 ± 0.0222 | –
[1], 308.15 K, x2 = 0.7252 | 0.509 ± 0.0208 | –
[1], 308.15 K, x2 = 0.7354 | 0.503 ± 0.0206 | –
[1], 308.15 K, x2 = 0.7659 | 0.467 ± 0.0191 | –
[1], 308.15 K, x2 = 0.8645 | 0.352 ± 0.0143 | –
[1], 313.15 K, x2 = 0.113 | 0.187 ± 0.00765 | –
[1], 313.15 K, x2 = 0.2393 | 0.374 ± 0.0153 | –
[1], 313.15 K, x2 = 0.2549 | 0.385 ± 0.0158 | –
[1], 313.15 K, x2 = 0.3933 | 0.518 ± 0.021 | –
[1], 313.15 K, x2 = 0.4936 | 0.569 ± 0.0232 | –
[1], 313.15 K, x2 = 0.4959 | 0.567 ± 0.0232 | –
[1], 313.15 K, x2 = 0.499 | 0.568 ± 0.0232 | –
[1], 313.15 K, x2 = 0.6245 | 0.564 ± 0.0229 | –
[1], 313.15 K, x2 = 0.7406 | 0.507 ± 0.0206 | –
[1], 313.15 K, x2 = 0.8666 | 0.369 ± 0.0151 | –
[1], 323.15 K, x2 = 0.1187 | 0.185 ± 0.00765 | –
[1], 323.15 K, x2 = 0.2569 | 0.406 ± 0.0165 | –
[1], 323.15 K, x2 = 0.2694 | 0.422 ± 0.0172 | –
[1], 323.15 K, x2 = 0.3969 | 0.538 ± 0.022 | –
[1], 323.15 K, x2 = 0.527 | 0.6 ± 0.0239 | –
[1], 323.15 K, x2 = 0.5431 | 0.611 ± 0.0239 | –
[1], 323.15 K, x2 = 0.6214 | 0.598 ± 0.0239 | –
[1], 323.15 K, x2 = 0.7499 | 0.548 ± 0.0222 | –
[1], 323.15 K, x2 = 0.8707 | 0.413 ± 0.0167 | –
[2], 293.15 K, x2 = 0 | – | 1397.1 ± 5.6
[2], 293.15 K, x2 = 0.1284 | – | 1379.5 ± 5.5
[2], 293.15 K, x2 = 0.2585 | – | 1357.1 ± 5.4
[2], 293.15 K, x2 = 0.3814 | – | 1329.7 ± 5.3
[2], 293.15 K, x2 = 0.5031 | – | 1293.9 ± 5.2
[2], 293.15 K, x2 = 0.6487 | – | 1232.1 ± 5
[2], 293.15 K, x2 = 0.7823 | – | 1142 ± 4.6
[2], 293.15 K, x2 = 0.8561 | – | 1066.3 ± 4.3
[2], 293.15 K, x2 = 0.8763 | – | 1040.6 ± 4.2
[2], 293.15 K, x2 = 0.9039 | – | 1000.1 ± 4
[2], 293.15 K, x2 = 0.95 | – | 916.4 ± 3.7
[2], 293.15 K, x2 = 0.9745 | – | 860.2 ± 3.4
[2], 295.15 K, x2 = 0 | – | 1395.3 ± 5.6
[2], 295.15 K, x2 = 0.1284 | – | 1377.7 ± 5.5
[2], 295.15 K, x2 = 0.2585 | – | 1355.3 ± 5.4
[2], 295.15 K, x2 = 0.3814 | – | 1327.8 ± 5.3
[2], 295.15 K, x2 = 0.5031 | – | 1292 ± 5.2
[2], 295.15 K, x2 = 0.6487 | – | 1230.3 ± 4.9
[2], 295.15 K, x2 = 0.7823 | – | 1140.1 ± 4.6
[2], 295.15 K, x2 = 0.8561 | – | 1064.5 ± 4.3
[2], 295.15 K, x2 = 0.8763 | – | 1038.8 ± 4.2
[2], 295.15 K, x2 = 0.9039 | – | 998.3 ± 4
[2], 295.15 K, x2 = 0.95 | – | 914.6 ± 3.7
[2], 295.15 K, x2 = 0.9745 | – | 858.4 ± 3.4
[2], 298.15 K, x2 = 0 | – | 1392.7 ± 5.6
[2], 298.15 K, x2 = 0.1284 | – | 1375.1 ± 5.5
[2], 298.15 K, x2 = 0.2585 | – | 1352.6 ± 5.4
[2], 298.15 K, x2 = 0.3814 | – | 1325.1 ± 5.3
[2], 298.15 K, x2 = 0.5031 | – | 1289.3 ± 5.2
[2], 298.15 K, x2 = 0.6487 | – | 1227.5 ± 4.9
[2], 298.15 K, x2 = 0.7823 | – | 1137.3 ± 4.6
[2], 298.15 K, x2 = 0.8561 | – | 1061.7 ± 4.3
[2], 298.15 K, x2 = 0.8763 | – | 1036 ± 4.2
[2], 298.15 K, x2 = 0.9039 | – | 995.6 ± 4
[2], 298.15 K, x2 = 0.95 | – | 911.9 ± 3.7
[2], 298.15 K, x2 = 0.9745 | – | 855.8 ± 3.4
[2], 303.15 K, x2 = 0 | – | 1388.3 ± 5.6
[2], 303.15 K, x2 = 0.1284 | – | 1370.6 ± 5.5
[2], 303.15 K, x2 = 0.2585 | – | 1348.1 ± 5.4
[2], 303.15 K, x2 = 0.3814 | – | 1320.6 ± 5.3
[2], 303.15 K, x2 = 0.5031 | – | 1284.7 ± 5.2
[2], 303.15 K, x2 = 0.6487 | – | 1222.8 ± 4.9
[2], 303.15 K, x2 = 0.7823 | – | 1132.7 ± 4.5
[2], 303.15 K, x2 = 0.8561 | – | 1057.1 ± 4.2
[2], 303.15 K, x2 = 0.8763 | – | 1031.4 ± 4.1
[2], 303.15 K, x2 = 0.9039 | – | 991 ± 4
[2], 303.15 K, x2 = 0.95 | – | 907.4 ± 3.6
[2], 303.15 K, x2 = 0.9745 | – | 851.4 ± 3.4
[2], 308.15 K, x2 = 0 | – | 1384 ± 5.6
[2], 308.15 K, x2 = 0.1284 | – | 1366.2 ± 5.5
[2], 308.15 K, x2 = 0.2585 | – | 1343.7 ± 5.4
[2], 308.15 K, x2 = 0.3814 | – | 1316.1 ± 5.3
[2], 308.15 K, x2 = 0.5031 | – | 1280.1 ± 5.1
[2], 308.15 K, x2 = 0.6487 | – | 1218.2 ± 4.9
[2], 308.15 K, x2 = 0.7823 | – | 1128 ± 4.5
[2], 308.15 K, x2 = 0.8561 | – | 1052.4 ± 4.2
[2], 308.15 K, x2 = 0.8763 | – | 1026.8 ± 4.1
[2], 308.15 K, x2 = 0.9039 | – | 986.4 ± 4
[2], 308.15 K, x2 = 0.95 | – | 902.9 ± 3.6
[2], 308.15 K, x2 = 0.9745 | – | 846.9 ± 3.4
[2], 313.15 K, x2 = 0 | – | 1379.6 ± 5.5
[2], 313.15 K, x2 = 0.1284 | – | 1361.8 ± 5.5
[2], 313.15 K, x2 = 0.2585 | – | 1339.2 ± 5.4
[2], 313.15 K, x2 = 0.3814 | – | 1311.6 ± 5.3
[2], 313.15 K, x2 = 0.5031 | – | 1275.6 ± 5.1
[2], 313.15 K, x2 = 0.6487 | – | 1213.6 ± 4.9
[2], 313.15 K, x2 = 0.7823 | – | 1123.3 ± 4.5
[2], 313.15 K, x2 = 0.8561 | – | 1047.8 ± 4.2
[2], 313.15 K, x2 = 0.8763 | – | 1022.1 ± 4.1
[2], 313.15 K, x2 = 0.9039 | – | 981.8 ± 3.9
[2], 313.15 K, x2 = 0.95 | – | 898.4 ± 3.6
[2], 313.15 K, x2 = 0.9745 | – | 842.5 ± 3.4
[2], 318.15 K, x2 = 0 | – | 1375.2 ± 5.5
[2], 318.15 K, x2 = 0.1284 | – | 1357.4 ± 5.4
[2], 318.15 K, x2 = 0.2585 | – | 1334.8 ± 5.4
[2], 318.15 K, x2 = 0.3814 | – | 1307.1 ± 5.2
[2], 318.15 K, x2 = 0.5031 | – | 1271 ± 5.1
[2], 318.15 K, x2 = 0.6487 | – | 1209 ± 4.8
[2], 318.15 K, x2 = 0.7823 | – | 1118.6 ± 4.5
[2], 318.15 K, x2 = 0.8561 | – | 1043.1 ± 4.2
[2], 318.15 K, x2 = 0.8763 | – | 1017.4 ± 4.1
[2], 318.15 K, x2 = 0.9039 | – | 977.1 ± 3.9
[2], 318.15 K, x2 = 0.95 | – | 893.8 ± 3.6
[2], 318.15 K, x2 = 0.9745 | – | 838 ± 3.4
[2], 323.15 K, x2 = 0 | – | 1370.9 ± 5.5
[2], 323.15 K, x2 = 0.1284 | – | 1353.1 ± 5.4
[2], 323.15 K, x2 = 0.2585 | – | 1330.4 ± 5.3
[2], 323.15 K, x2 = 0.3814 | – | 1302.6 ± 5.2
[2], 323.15 K, x2 = 0.5031 | – | 1266.5 ± 5.1
[2], 323.15 K, x2 = 0.6487 | – | 1204.4 ± 4.8
[2], 323.15 K, x2 = 0.7823 | – | 1114 ± 4.5
[2], 323.15 K, x2 = 0.8561 | – | 1038.4 ± 4.2
[2], 323.15 K, x2 = 0.8763 | – | 1012.7 ± 4.1
[2], 323.15 K, x2 = 0.9039 | – | 972.4 ± 3.9
[2], 323.15 K, x2 = 0.95 | – | 889.2 ± 3.6
[2], 323.15 K, x2 = 0.9745 | – | 833.4 ± 3.3
[2], 328.15 K, x2 = 0 | – | 1366.6 ± 5.5
[2], 328.15 K, x2 = 0.1284 | – | 1348.7 ± 5.4
[2], 328.15 K, x2 = 0.2585 | – | 1325.9 ± 5.3
[2], 328.15 K, x2 = 0.3814 | – | 1298.1 ± 5.2
[2], 328.15 K, x2 = 0.5031 | – | 1261.9 ± 5.1
[2], 328.15 K, x2 = 0.6487 | – | 1199.7 ± 4.8
[2], 328.15 K, x2 = 0.7823 | – | 1109.2 ± 4.4
[2], 328.15 K, x2 = 0.8561 | – | 1033.7 ± 4.1
[2], 328.15 K, x2 = 0.8763 | – | 1008 ± 4
[2], 328.15 K, x2 = 0.9039 | – | 967.7 ± 3.9
[2], 328.15 K, x2 = 0.95 | – | 884.5 ± 3.5
[2], 328.15 K, x2 = 0.9745 | – | 828.8 ± 3.3
[2], 333.15 K, x2 = 0 | – | 1362.3 ± 5.5
[2], 333.15 K, x2 = 0.1284 | – | 1344.3 ± 5.4
[2], 333.15 K, x2 = 0.2585 | – | 1321.5 ± 5.3
[2], 333.15 K, x2 = 0.3814 | – | 1293.7 ± 5.2
[2], 333.15 K, x2 = 0.5031 | – | 1257.4 ± 5
[2], 333.15 K, x2 = 0.6487 | – | 1195.1 ± 4.8
[2], 333.15 K, x2 = 0.7823 | – | 1104.5 ± 4.4
[2], 333.15 K, x2 = 0.8561 | – | 1028.9 ± 4.1
[2], 333.15 K, x2 = 0.8763 | – | 1003.3 ± 4
[2], 333.15 K, x2 = 0.9039 | – | 963 ± 3.9
[2], 333.15 K, x2 = 0.95 | – | 879.8 ± 3.5
[2], 333.15 K, x2 = 0.9745 | – | 824.2 ± 3.3
